Data taken from patent EP0371438B1, “3,5-Di-tertiary-butyl-4-hydroxyphenyl-1,3,4-thiadiazoles, and oxadiazoles and 3,5-di-tertiary-butyl-4-hydroxiphenyl- 1,2,4-thiadiazoles, -oxadiazoles as antiinflammatory agents” (WARNER-LAMBERT COMPANY, priority 1988, dated 1990).

Assays:
[1] = test system: cyclooxygenase; experiment: ARBC whole cell cyclooxygenase assay (PGF2α formation, RIA); assay type: cell-based, rat; details: IC50 for PGF2α inhibition; RBL-1 cells, calcium ionophore A23187
Protocol: (§1) ARBL/ARBC Whole Cell 5-Lipoxygenase and Cyclooxygenase Assays
(§2) The rat basophilic leukemia cell line (RBL-1) was obtained from the American Type Culture Collection (Rockville, MD).
(§3) Radioimmunoassay (RIA) kits of LTB₄ and [drawing 16] were obtained from Amersham (Arlington Heights, IL) and Seragen (Boston, MA), respectively.
(§4) RBL-1 cells are grown in suspension culture in Eagle's minimum essential medium supplemented with 12% fetal bovine serum at 37°C in an incubator supplied with air-5% carbon dioxide. Cells are harvested by centrifugation. They are washed with cold phosphate buffered saline pH 7.4 (PBS; NaCl, 7.1 g; Na₂HPO₄, 1.15 g; KH₂PO₄, 0.2 g; and KCl, 0.2 g/l). Cells are finally suspended in PBS containing 1.0 mM calcium at a density of 2x10⁶ cells/ml. Cells are incubated with and without test agent (in DMSO) (1% DMSO is without effect on arachidonic acid metabolism) for ten minutes at room temperature. Calcium ionophore A23187 (5 »M) is added and cells are incubated for seven minutes at 37°C. The reaction is stopped by chilling the tubes on ice for ten minutes. Cells are separated by centrifugation and the supernatant is stored at -20°. Aliquots (100 »l) are analyzed for LTB₄ and [drawing 17] using radioimmunoassay kits as provided by the supplier.
(§5) Table 1 contains biochemical data obtained from this whole cell assay as IC₅₀s which are calculated as the amount of test compound causing 50% inhibition of LTB₄ or [drawing 18] formation.

[2] = test system: gastric ulcers; experiment: Gastric ulcerogenicity (UD); assay type: in vivo, Male outbred Wistar rats; details: PO, dose which produces a 50% occurrence of ulcers in rats; result given @ 200; compound tested as its sodium salt
Protocol: Gastric Ulcerogenicity (UD): Protocol
Male outbred Wistar rats (100-250 gms) are fasted for 24 hours. After fasting, test compounds are administered orally (in 2 ml/kg of 0.5% hydroxypropyl methylcellulose) and the rats are denied access to food and water for six more hours. The rats are then sacrificed with CO₂ so that the stomachs can be removed, opened along the greater curvature, and evaluated for the presence of gastric ulcers. Results are expressed as the percent of rats with gastric ulcers at a given dose or as the UD₅₀ (the dose which causes ulcers in 50% of the rats).

[3] = test system: Carrageenan-Induced Rat Foot Paw Edema; experiment: Carrageenan-induced rat foot paw edema-2 (CFE-2) assay; assay type: in vivo; details: 5 h, PO, dosed one hour before carrageenan, edema measured five hours after, compound tested as its sodium salt, read-out: CFE-2 ID₄₀
Protocol: Carrageenan-Induced Rat Foot Paw Edema-2 (CFE-2) Assay: Protocol
Carrageenan solution (1% w/v) is prepared by dissolving 100 mg carrageenan (Marine Colloidal Div., Springfield, NJ) in 10 ml of sterile saline (0.9%) solution (Travenol). The solution is vortexed for 30 to 45 minutes. Animals are dosed with compound one hour before carrageenan challenge. Foot paw edema is induced by injecting 0.10 ml of the 1% carrageenan subcutaneously into the plantar portion of the right hind paw of each rat under light anesthesia. Initial foot paw volume is measured immediately following carrageenan challenge using mercury plethysmography (Buxco Electronics). Edema is measured five hours after carrageenan. The difference between the five-hour and the initial paw volume is expressed as delta edema. The delta edema for each test group of animals is used to calculate the percent inhibition of edema achieved by the compound at the test dose compared with the vehicle control group. The ID₄₀ (the dose at which swelling is inhibited by 40%) is calculated by probit analysis for the dose at which 40 percent inhibition occurs.

[4] = test system: Mycobacterium - Induced Rat Footpad Edema; experiment: Mycobacterium-induced rat footpad edema assay (MFE); assay type: in vivo; details: PO, swelling 72 hours after injection, compound tested as its sodium salt, read-out: MFE ID₄₀
Protocol: Mycobacterium - Induced Rat Footpad Edema Assay (MFE): Protocol Mycobacterium butyricum (5 mg/ml) is suspended in paraffin oil by sonication for ten minutes in an ice bath. Footpad edema is induced on Day 0 by injecting 0.1 ml of the Mycobacterium mixture into the left hindpaw of lightly anesthetized rats. Swelling in the injected hindpaw is determined by mercury plethysmography 72 hours after injection. Groups of rats are treated with test compounds (suspended in 0.5% hydroxypropyl methylcellulose with 0.2% Tween-80) or vehicle one hour before Mycobacterium injection and on Days 1 and 2. Inhibition of swelling is determined by comparing the change in hindpaw volume in compound-and vehicle-treated rats. An ID₄₀ (the dose at which swelling is inhibited by 40%) is calculated by probit analysis.

[5] = biological target: T1, 5-lipoxygenase (Rattus norvegicus, UniProt P12527); experiment: ARBL whole cell 5-lipoxygenase assay (LTB4 formation, RIA); assay type: cell-based; details: IC50 for LTB4 inhibition; RBL-1 cells, calcium ionophore A23187
T1 construct: host or cells: RBL-1 (rat basophilic leukemia)
T1 sequence (P12527 1-673): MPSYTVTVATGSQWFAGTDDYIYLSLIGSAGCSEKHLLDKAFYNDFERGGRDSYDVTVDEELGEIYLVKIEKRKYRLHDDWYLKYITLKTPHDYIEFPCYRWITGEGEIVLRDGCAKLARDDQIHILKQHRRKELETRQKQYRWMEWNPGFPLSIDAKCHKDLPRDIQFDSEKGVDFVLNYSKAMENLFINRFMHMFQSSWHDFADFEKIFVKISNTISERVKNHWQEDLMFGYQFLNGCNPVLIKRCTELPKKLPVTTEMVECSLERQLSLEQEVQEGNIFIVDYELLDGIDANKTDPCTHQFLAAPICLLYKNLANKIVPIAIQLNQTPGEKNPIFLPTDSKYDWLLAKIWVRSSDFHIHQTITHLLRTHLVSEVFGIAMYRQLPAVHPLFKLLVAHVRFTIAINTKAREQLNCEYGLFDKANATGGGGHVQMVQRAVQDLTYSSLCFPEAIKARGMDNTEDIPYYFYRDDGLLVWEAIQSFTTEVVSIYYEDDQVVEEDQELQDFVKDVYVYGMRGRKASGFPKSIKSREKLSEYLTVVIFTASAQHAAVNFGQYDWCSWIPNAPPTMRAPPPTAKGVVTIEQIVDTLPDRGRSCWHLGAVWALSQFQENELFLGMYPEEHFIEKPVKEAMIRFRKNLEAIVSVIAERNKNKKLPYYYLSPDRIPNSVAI
Protocol: as §1, §2, §3, §4, §5

SMILES	IC50 [1] [nM]	UD₅₀ [2]	ED40 [3] [mg/kg]	ED40 [4] [mg/kg]	IC50 [5] [µM]
CC(C)(C)c1cc(-c2nnc(S)s2)cc(C(C)(C)C)c1O [Example 4, 5-[3,5-Bis(1,1-dimethylethyl)-4-hydroxyphenyl]-1,3,4-thiadiazole-2(3H)-thione]	860	N @ 200 (N is 0% of rats having ulcers at 200 mg.)	1.9	3.2	5.7
CC(C)(C)c1cc(-c2n[nH]c(=O)[nH]2)cc(C(C)(C)C)c1O [Example 15, 5-[3,5-Bis(1,1-dimethylethyl)-4-hydroxyphenyl]-2,4-dihydro-3H-1,2,4-triazol-3-one]	5500	–	–	–	4.5
CC(C)(C)c1cc(-c2n[nH]c(=S)o2)cc(C(C)(C)C)c1O [Example 8, 5-[3,5-Bis(1,1-dimethylethyl)-4-hydroxyphenyl]-1,3,4-oxadiazole-2(3H)-thione]	8000	–	–	–	10
CC(C)(C)c1cc(-c2nnc(N)s2)cc(C(C)(C)C)c1O [Example 10, 4-(5-Amino-1,3,4-thiadiazol-2-yl)-2,6-bis(1,1-dimethylethyl)phenol]	130	–	–	–	1.4
CC(C)(C)c1cc(-c2n[nH]c(=O)o2)cc(C(C)(C)C)c1O [Example 7, 5-[3,5-Bis(1,1-dimethylethyl)-4-hydroxyphenyl]-1,3,4-oxadiazol-2(3H)-one]	2500	–	–	–	1.4
